For one experiment, the target named is ASK1 (Apoptosis Signal-Regulating Kinase 1) (Homo sapiens (Human), UniProt Q99683). The experiment in a line: ASK1 (Apoptosis Signal-Regulating Kinase 1) TR-FRET Kinase Assay (Biochemical IC50).
Sequence of ASK1 (Apoptosis Signal-Regulating Kinase 1) (Q99683 649-946): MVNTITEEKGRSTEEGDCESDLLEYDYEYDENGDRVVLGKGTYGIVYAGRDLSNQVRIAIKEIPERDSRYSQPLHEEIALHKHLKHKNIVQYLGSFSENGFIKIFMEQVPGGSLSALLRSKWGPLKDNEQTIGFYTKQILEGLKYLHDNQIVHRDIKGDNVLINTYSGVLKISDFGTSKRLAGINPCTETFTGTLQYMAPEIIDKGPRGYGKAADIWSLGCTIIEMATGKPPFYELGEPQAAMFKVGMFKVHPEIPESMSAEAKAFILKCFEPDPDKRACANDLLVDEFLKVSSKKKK
Conditions: not given
On the technique in general: Time-resolved FRET reads energy transfer from a long-lived donor to a nearby acceptor.
`Cc1ccc2c(-c3ccc(C4CC4)nc3)cc(C(=O)Nc3cccc(-c4nncn4C4CC4)c3)nc2c1C` [Example 240, N-(3-(4-cyclopropyl-4H-1,2,4-triazol-3-yl)phenyl)-4-(6-cyclopropylpyridin-3-yl)-7,8-dimethylquinoline-2-carboxamide] returned an IC50 of 0.222 µM.

Staying with this experiment, now noted: TR-FRET, biotin-MBP substrate, 20 min pre-incubation, ATP added as 300 μM solution.
The molecule `C[C@H](n1cnnc1-c1cccc(NC(=O)c2cc(-c3ccc(C4CC4)nc3)ccn2)c1)C(C)(C)C` [Example 242, (S)-6-cyclopropyl-N-(3-(4-(3,3-dimethylbutan-2-yl)-4H-1,2,4-triazol-3-yl)phenyl)-3,4′-bipyridine-2′-carboxamide] had an IC50 of 1.13 µM.
Same read-out and setting: then `O=C(Nc1cccc(-c2nncn2C2CC2)c1)c1cc(-c2cnccn2)ccn1` [Example 87, N-(3-(4-cyclopropyl-4H-1,2,4-triazol-3-yl)phenyl)-4-(pyrazin-2-yl)picolinamide], with 0.069 µM; and `Cc1cc(-c2ccc(C3CC3)nc2)cc(C(=O)Nc2cccc(-c3nncn3C3CC3)c2)n1` [Example 249, 6-cyclopropyl-N-(3-(4-cyclopropyl-4H-1,2,4-triazol-3-yl)phenyl)-6′-methyl-3,4′-bipyridine-2′-carboxamide], with 0.071 µM; and `Cn1cnnc1-c1cccc(NC(=O)c2cncc(-c3ccccc3)c2)c1` [Example 2, N-(3-(4-methyl-4H-1,2,4-triazol-3-yl)phenyl)-5-phenylnicotinamide], with 5.59 µM.
On the same count and under the same terms, then `O=C(Nc1cccc(-c2nncn2C2CC2)n1)c1cc(-n2cnc(C3CC3)c2)ccn1` [Example 170, 4-(4-cyclopropyl-1H-imidazol-1-yl)-N-(6-(4-cyclopropyl-4H-1,2,4-triazol-3-yl)pyridin-2-yl)picolinamide], with 0.007 µM; and `Cc1ccc2c(-c3ccc(C4CC4)nc3)cc(C(=O)Nc3cccc(-c4nncn4C4CC4)n3)nc2c1C` [Example 236, N-(6-(4-cyclopropyl-4H-1,2,4-triazol-3-yl)pyridin-2-yl)-4-(6-cyclopropylpyridin-3-yl)-7,8-dimethylquinoline-2-carboxamide], with 0.139 µM; and `Nc1ncccc1-c1ccnc(C(=O)Nc2cccc(-c3nncn3C3CC3)c2)c1` [Example 66, 2-amino-N-(3-(4-cyclopropyl-4H-1,2,4-triazol-3-yl)phenyl)-3,4′-bipyridine-2′-carboxamide], with 0.086 µM.
Consider `CC(C)(C)NC(=O)c1cncc(-c2ccnc(C(=O)Nc3cccc(-c4nncn4C4CC4)c3)c2)c1` [Example 75, N5-tert-butyl-N2′-(3-(4-cyclopropyl-4H-1,2,4-triazol-3-yl)phenyl)-3,4′-bipyridirie-2′,5-dicarboxamide], for which the IC50 was 0.01 µM.
On the same count and under the same terms, then `CC(C)NS(=O)(=O)c1ccc(-c2ccnc(C(=O)Nc3cccc(-c4nncn4C4CC4)c3)c2)cc1` [Example 99, N-(3-(4-cyclopropyl-4H-1,2,4-triazol-3-yl)phenyl)-4-(4-(N-isopropylsulfamoyl)phenyl)picolinamide], with 0.017 µM.
Still for that read-out and setting: next, `Cc1cnc(C(=O)Nc2cccc(-c3nncn3C3CC3)c2)cc1-c1ccc(C2CC2)nc1` [Example 250, 6-cyclopropyl-N-(3-(4-cyclopropyl-4H-1,2,4-triazol-3-yl)phenyl)-5′-methyl-3,4′-bipyridine-2′-carboxamide]: 0.008 µM; `COc1ncccc1-c1ccnc(C(=O)Nc2cccc(-c3nncn3C3CC3)c2)c1` [Example 67, N-(3-(4-cyclopropyl-4H-1,2,4-triazol-3-yl)phenyl)-2-methoxy-3,4′-bipyridine-2′-carboxamide]: 0.06 µM; `O=C(Nc1cccc(-c2cncn2C2CC2)c1)c1cc(-c2cnc3ccccc3c2)ccn1` [Example 108, N-(3-(1-cyclopropyl-1H-imidazol-5-yl)phenyl)-4-(quinolin-3-yl)picolinamide]: 0.041 µM.
On the same count and under the same terms, then `Cc1ncn(-c2cccc(C(=O)Nc3cccc(-c4nncn4C4CC4)n3)c2)c1C` [Example 211, N-(6-(4-cyclopropyl-4H-1,2,4-triazol-3-yl)pyridin-2-yl)-3-(4,5-dimethyl-1H-imidazol-1-yl)benzamide], with 0.009 µM; and `O=C(Nc1cccc(-c2nncn2C2CC2)c1)c1cc(-c2ccc(S(=O)(=O)NC3CC3)cc2)ccn1` [Example 96, N-(3-(4-cyclopropyl-4H-1,2,4-triazol-3-yl)phenyl)-4-(4-(N-cyclopropylsulfamoyl)phenyl)picolinamide], with 0.013 µM.
For `O=C(Nc1cccc(-c2nncn2C2CC2)n1)c1cc(-n2cnc(C(O)C(F)(F)F)c2)ccn1` (stereo not shown) [Example 207, N-(6-(4-cyclopropyl-4H-1,2,4-triazol-3-yl)pyridin-2-yl)-4-(4-(2,2,2-trifluoro-1-hydroxyethyl)-1H-imidazol-1-yl)picolinamide], the IC50 amounted to 0.011 µM.
On the same count and under the same terms, then `Cc1cn(-c2ccnc(C(=O)Nc3cccc(-c4nncn4C4CC4)c3)c2)cn1` [Example 42, N-(3-(4-cyclopropyl-4H-1,2,4-triazol-3-yl)phenyl)-4-(4-methyl-1H-imidazol-1-yl)picolinamide], with 0.011 µM.
Same read-out and setting: next, `O=C(Nc1cccc(-c2nncn2C2CC2)c1)c1cc(N2CCCC(O)C2)ccn1` (stereo not shown) [Example 174, N-(3-(4-cyclopropyl-4H-1,2,4-triazol-3-yl)phenyl)-4-(3-hydroxypiperidin-1-yl)picolinamide]: 0.093 µM; `O=C(Nc1cccc(-c2nncn2C2CC2)c1)c1cc(-n2cnc(C(F)(F)F)c2)ccn1` [Example 44, N-(3-(4-cyclopropyl-4H-1,2,4-triazol-3-yl)phenyl)-4-(4-(trifluoromethyl)-1H-imidazol-1-yl)picolinamide]: 0.027 µM.
`O=C(Nc1cccc(-c2nncn2C2CC2)c1)c1cc(-c2ccc(F)nc2)ccn1` [Example 93, N-(3-(4-cyclopropyl-4H-1,2,4-triazol-3-yl)phenyl)-6-fluoro-3,4′-bipyridine-2′-carboxamide] gave an IC50 of 0.043 µM.
As for `O=C(Nc1cc(-c2nncn2C2CC2)ccn1)c1cc(-c2cccnc2)ccn1` [Example 164, N-(4-(4-cyclopropyl-4H-1,2,4-triazol-3-yl)pyridin-2-yl)-3,4′-bipyridine-2′-carboxamide], the IC50 worked out at 0.018 µM.
The same measure, in the same setting: next, `Cn1cnnc1-c1cccc(NC(=O)c2cc(-c3cccnc3)ccn2)c1` [Example 9, N-(3-(4-methyl-4H-1,2,4-triazol-3-yl)phenyl)-3,4′-bipyridine-2′-carboxamide]: 0.042 µM; `O=C(Nc1cccc(-c2nncn2C2CC2)c1)c1cc(-c2ccc(OC3CCC3)nc2)ccn1` [Example 95, 6-cyclobutoxy-N-(3-(4-cyclopropyl-4H-1,2,4-triazol-3-yl)phenyl)-3,4′-bipyridine-2′-carboxamide]: 0.031 µM; `COC[C@H](C)n1cnnc1-c1cccc(NC(=O)c2cc(-c3ccc(C4CC4)nc3)ccn2)n1` [Example 234, (S)-6-cyclopropyl-N-(6-(4-(1-methoxypropan-2-yl)-4H-1,2,4-triazol-3-yl)pyridin-2-yl)-3,4′-bipyridine-2′-carboxamide]: 0.008 µM.
Same read-out and setting: then `CNS(=O)(=O)c1ccc(-c2ccnc(C(=O)Nc3cccc(-c4nncn4C4CC4)c3)c2)cc1` [Example 98, N-(3-(4-cyclopropyl-4H-1,2,4-triazol-3-yl)phenyl)-4-(4-(N-methylsulfamoyl)phenyl)picolinamide], with 0.007 µM; and `CN1CCc2ncc(-c3ccnc(C(=O)Nc4cccc(-c5nncn5C5CC5)c4)c3)cc2C1` [Example 173, N-(3-(4-cyclopropyl-4H-1,2,4-triazol-3-yl)phenyl)-4-(6-methyl-5,6,7,8-tetrahydro-1,6-naphthyridin-3-yl)picolinamide], with 0.021 µM; and `O=C(Nc1cccc(-c2nncn2C2CC2)c1)c1cc(-c2cccnc2)c2ccccc2n1` [Example 80, N-(3-(4-cyclopropyl-4H-1,2,4-triazol-3-yl)phenyl)-4-(pyridin-3-yl)quinoline-2-carboxamide], with 0.036 µM.
On the same count and under the same terms, then `O=C(Nc1cccc(-c2nncn2C2CC2)n1)c1cncc(-c2ccc(C3CC3)nc2)c1` [Example 259, 6′-cyclopropyl-N-(6-(4-cyclopropyl-4H-1,2,4-triazol-3-yl)pyridin-2-yl)-3,3′-bipyridine-5-carboxamide], with 0.008 µM; and `O=C(Nc1cccc(-c2nncn2C2CC2)c1)c1cc(-c2cncc3ccccc23)ccn1` [Example 89, N-(3-(4-cyclopropyl-4H-1,2,4-triazol-3-yl)phenyl)-4-(isoquinolin-4-yl)picolinamide], with 0.026 µM.
As for `O=C(Nc1cccc(-c2nncn2C2CC2)c1)c1cc(-n2ncnc2C2CC2)ccn1` [Example 203, 4-(5-cyclopropyl-1H-1,2,4-triazol-1-yl)-N-(3-(4-cyclopropyl-4H-1,2,4-triazol-3-yl)phenyl)picolinamide], half-maximal inhibition (IC50) was put at 0.538 µM.
In the case of `CN1CCC(c2ccc(-c3ccnc(C(=O)Nc4cccc(-c5nncn5C5CC5)c4)c3)cn2)C1=O` (stereo not shown) [Example 110, N-(3-(4-cyclopropyl-4H-1,2,4-triazol-3-yl)phenyl)-6-(1-methyl-2-oxopyrrolidin-3-yl)-3,4′-bipyridine-2′-carboxamide], the IC50 was 0.008 µM.
Still for that read-out and setting: then `C[C@H](n1cnnc1-c1cccc(NC(=O)c2cc(-c3ccc(C4CC4)nc3)ccn2)n1)C(F)(F)F` [Example 179, (S)-6-cyclopropyl-N-(6-(4-(1,1,1-trifluoropropan-2-yl)-4H-1,2,4-triazol-3-yl)pyridin-2-yl)-3,4′-bipyridine-2′-carboxamide], with 0.019 µM; and `CC(C)[C@H](C)n1cnnc1-c1cccc(NC(=O)c2cc(-c3ccc(C4CC4)nc3)ccn2)c1` [Example 238, (S)-6-cyclopropyl-N-(3-(4-(3-methylbutan-2-yl)-4H-1,2,4-triazol-3-yl)phenyl)-3,4′-bipyridine-2′-carboxamide], with 0.006 µM.
In the case of `O=C(Nc1cccc(-c2nncn2C2CC2)c1)c1cc(-c2cnc(C3CC3)cn2)ccn1` [Example 133, N-(3-(4-cyclopropyl-4H-1,2,4-triazol-3-yl)phenyl)-4-(5-cyclopropylpyrazin-2-yl)picolinamide], the IC50 came to 0.01 µM.

One may read the IC50 as the concentration at which inhibition is half-maximal. A high value points to weaker potency in that assay.

For the origin of these results see patent publication USRE48711E1, “Apoptosis signal-regulating kinase inhibitors” (Gilead Sciences, Inc., priority 2009, dated 2021).
